The source of these data is article PMC5025856, “A Novel Assay for Screening Inhibitors Targeting HIV Integrase LEDGF/p75 Interaction Based on Ni^2+ Coated Magnetic Agarose Beads” (Scientific Reports, 2016).

pIC50, pKd: −log10 of the molar value. Like-named read-outs stand apart in the source and are kept apart here.

The target in test [1] is T1, PPI between HIV-1 IN CCD and LEDGF/p75 IBD (Homo sapiens, UniProt O75475).
T1 construct: The IN CCD protein used contained HIV IN residues 50–212 fused with an C-terminal His6-tag; a fusion of LEDGF/p75 residues 347–471 with the N-terminal GST-tag; made in house; host or cells: bacterial expression vectors pET28a (IN CCD) and pGEX-4T-1 (IBD)
Briefly: IN CCD-LEDGF/p75 IBD PPI assay based on Ni-NTA magnetic agarose beads. Format: binding. How it is done:
In the assay, GST–tagged LEDGF/p75 IBD (yellow) is mixed with His6-tagged IN CCD (green) at the desired concentrations. After incubation at room temperature, a double-tagged PPI complex with N-terminal GST-tag and C-terminal His6-tag is established between two protein partners. The PPI complex is captured by Ni^2+-coated magnetic beads (red) through His6-tag, followed by the addition of alkaline phosphatase conjugated anti-GST antibody (dark red). Therefore, the product could be measured by the alkaline phosphatase conjugated-coupled enzyme reaction (Fig. 1A).
The IN CCD-LEDGF/p75 IBD interaction assay was developed based on Ni-NTA Magnetic Agarose Beads (BEAVER Nano-technologies Co., Ltd. Suzhou, China). The assay was optimized for use in 96-well nonbinding surface microplates (Corning, New York, USA) in a final volume of 100 μl per well. Briefly, the assay works as follows. Compounds and proteins were diluted to 10× and 5× working solutions in the 1× assay buffer (25 mM Tris-HCl, pH 7.4, 150 mM NaCl, 1 mM MgCl2, 0.05% BSA[v/w]) respectively. Firstly, 10 μl compound dilution, 50 μl 1× buffer, 20 μl each of protein dilutions were pipetted into the wells. The plate was sealed and left to incubate at 200 rpm for 3 h at RT. Secondly, 10 μl of Ni-NTA Magnetic Agarose Beads were added followed by incubating at 900 rpm for 30 min at RT. Thirdly, the wells holding the mixture were placed on a magnetic concentrator, the supernatant was discarded, and the wells were washed 3 times with 200 μl wash buffer (50 mM sodium phosphate, pH 7.4, 150 mM NaCl, 0.005% tween-20[v/v], 20 mM imidazole). Fourthly, the wells were incubated with 100 μl of a 1:4000 solution of mouse anti-GST antibody (Sigma, USA) in antibody dilution buffer (50 mM Sodium Phosphate, pH 7.4, 150 mM NaCl, 0.005% Tween-20[v/v], 0.5%[w/v] BSA) at 900 rpm for 30 min at 37 °C, followed by washing three times. Fifthly, the wells were incubated with 100 μl of a 1:5000 solution of rabbit anti-mouse IgG alkaline phosphatase conjugated antibody (Sigma, USA) in antibody dilution buffer at 900 rpm for 30 min at 37 °C, followed by washing 3 times. Lastly, the color reaction was developed with 100 μl substrate buffer (10 mM diethanolamine, pH 9.8, 0.5 mM MgCl2, 8 mM p-NPP) for 30 min at 37 °C. The absorbance ([…]) of each well was measured in an Enspire multimode reader (PerkinElmer, USA). The reproducibility, signal stability, and robustness of this PPI assay were determined to ensure its compatible for HTS. Furthermore, IL23, an IN CCD-LEDGF/p75 IBD PPI inhibitor, was used to validate the assay efficiency.
In total, 1000 compounds selected at random from ‘The Spectrum Collection’ were purchased from National compound resource center. The library, which is composed of 2,320 compounds in 10 mM DMSO solution, lists primarily FDA-approved human therapeutic drugs, drug-like compounds, and natural products. Each compound was diluted in DMSO to reach a concentration of 300 μM, which was used as the 10× compound stock. In all screening campaigns, the negative control was based on the use of PPI binding mutant controls (single-point mutation) that would prevent the PPI from forming, and the positive control contained 10% (v/v) DMSO only. The negative and positive control with 8 replicates wells each located randomly among the 96 wells of each plate.
The z′ factor, signal-to-noise ratio (S/N), signal-to-background ratio (S/B), signal window (SW), and coefficient of variation (CV) were calculated and then compared with the minimum pass criteria (z′ >0.5, S/N>10, S/B > 3, SW >2, CV < 20%)[39][40][41][42]. The “hits” for PPI assays were classified as compounds that led to more than 60% disruption of a PPI complex. All HTS data were processed using Excel (Microsoft Corp.) and visualized using Prism 5.0 (GraphPad Software).

The next test deals with T2, His6-tagged GST protein (Schistosoma japonicum, UniProt P08515).
T2 construct: made in house; host or cells: bacterial expression vector pGEX-4T-1
Description: Non-specificity counterscreen with His6-GST protein. Conditions: dose-response, 10 nM His6-tagged GST protein. How it is done:
The false positive compound identified in this HTS may affect the assay by forming hydrogen bonds interaction with His6-tag of IN CCD or forming chelating complexes with Ni^2+-ion covering magnetic beads surface. […] Any compound that interfered with bead or with the His6-tag of double-tagged protein would result in a decreased signal in the counterscreen assay.
A counterscreen was carried out as described above, with the replacement of purified HIV-1 IN CCD and LEDGF/p75 IBD with 10 nM His6-tagged GST protein.
(Counterscreens check selectivity or assay interference.)

The next test deals with LEDGF/p75 (Homo sapiens, UniProt O75475). Briefly: Biolayer interferometry (BLI) binding to LEDGF/p75. Conditions: ForteBIO Octet, 1:1 Langmuir global fit, read-out: dissociation constant Kd. How it is done: Biolayer interferometry (BLI) was used to study the kinetics of dexlansoprazole binding to LEDGF/p75 on a ForteBio Octet, according to the manufacturer’s instructions and published methods. Streptavidin biosensors tips were pre-wetted with buffer and immobilized with biotinylated protein. The biosensors were then transferred into wells containing dexlansoprazole in serial dilutions from 32 μM to 1 μM concentrations. Protein–ligand binding was measured by monitoring the changes in the interferometric profile of the wavelength of light passing through the sensor. Binding curves were analyzed using ForteBIO software, which performs a global fit according to the 1:1 Langmuir model to obtain the kinetic rate constants for each set of interaction conditions.
(In general: In BLI a coated tip is dipped into the sample, and binding shifts an interference pattern.)

The subject of the next test is cancer xenograft models. Also noted: method as in PMID 25093583. As to conditions: primary screen hit in cancer xenograft models; cited from earlier work.
The target of test [2] is HIV-1 integrase catalytic core domain (IN CCD), residues 50-212, F185K, C-terminal His6-tag (HIV-1). Briefly: ELISA; ELISA-based magnetic bead assay: GST-IBD and His6-CCD mixed in solution (25 mM Tris-HCl pH 7.4, 150 mM NaCl, 1 mM MgCl2, 0.05% BSA, 3 h RT), complex captured on Ni-NTA magnetic agarose beads by the His6-tag, detected with anti-GST antibody and alkaline phosphatase conjugate, absorbance read-out (A405); optimal conditions, ratio 1:1. For orientation: ELISA stands for enzyme-linked immunosorbent assay.

Test [3] has as its target HIV-1 IN CCD W131E (residues 50-212, F185K, W131E), C-terminal His6-tag (HIV-1). The test is described as above.
Where [4] appears, read: at 30 μM for each proton-pump inhibitor, PPI between LEDGF/p75 IBD and IN CCD, read-out: Inhibition (%).
Where [5] appears, read: IN CCD-LEDGF/p75 IBD PPI, magnetic-beads assay, dose response, read-out: IC50.

The term pIC50 denotes the negative decadic logarithm of the IC50, by convention in mol/L. A word on the pKd: it is −log10 of the Kd, conventionally taken in molar units. Compound `Cc1c(OCC(F)(F)F)ccnc1C[S@@+]([O-])c1nc2ccccc2[nH]1` [Dexlansoprazole] gave a pIC50 in test [1] of 5.32. In addition, the inhibition at 30 µM in test [1] (setting [4]) was determined as 75.2%; in test [1] (confirmatory screening, triplicate, 30 μM, read-out: inhibitory rate) it was 90.3%. The “inhibitory activity against IN CCD-LEDGF/p75 IBD interaction (in words)” value in test [1] (qualitative statement) was “moderate inhibitory activity”. In addition, the “effect on the assay system (counterscreen)” value at His6-tagged GST protein was “almost had no effect”. In addition, on LEDGF/p75, the pKd was 6.48. Further, in the test with cancer xenograft models, the anti-cancer activity result is “poor”.
Consider `COc1ccc2nc([S@@+]([O-])Cc3ncc(C)c(OC)c3C)[nH]c2c1` [Esomeprazole], for which the negative logarithm of the IC50 (pIC50) in test [1] (setting [5]) is less than 4.52. Also, in test [1] (setting [4]), the inhibition at 30 µM worked out at 22%.
Take `Cc1c(OCC(F)(F)F)ccnc1C[S+]([O-])c1nc2ccccc2[nH]1` (centres unmarked) [Lansoprazole]: the inhibition at 30 µM in test [1] (setting [4]) is -86.2%.
Take `COc1ccc2[nH]c([S+]([O-])Cc3ncc(C)c(OC)c3C)nc2c1` (centres unmarked) [Omeprazole]: the pIC50 in test [1] (setting [5]) is less than 4.52. In addition, the inhibition at 30 µM in test [1] (setting [4]) came out at 26.2%.
With `COc1ccnc(C[S+]([O-])c2nc3ccc(OC(F)F)cc3[nH]2)c1OC` (centres unmarked) [Pantoprazole], the inhibition at 30 µM in test [1] (setting [4]) is -23.9%.
`COCCCOc1ccnc(C[S+]([O-])c2nc3ccccc3[nH]2)c1C` (centres unmarked) [Rabeprazole]: the pIC50 in test [1] (setting [5]) was less than 4.52. For the same compound, in test [1] (setting [4]), the inhibition at 30 µM turned out to be 14.5%.
The like results for `COc1ccc2[nH]c([S+]([O-])Cc3ncc(C)c(OC)c3C)nc2n1` (centres unmarked) [Tenatoprazole] were, in that order, less than 4.52 and 33.6%.
Consider “LEDGF/p75 IBD D366N (residues 347-471), N-terminal GST-tag (from UniProt O75475 347-471) (domain or fragment)”, for which, in test [2], the A405 signal was less than 0.01 A405.
“LEDGF/p75 integrase binding domain (LEDGF/p75 IBD), residues 347-471, N-terminal GST-tag (from UniProt O75475 347-471) (domain or fragment)”: the A405 signal in test [3] was less than 0.01 A405; in test [2] it was 0.66 A405.
